The values that follow come from patent EP0155872A1, “Process for reducing the lignin content of plants, and compositions for putting it into use” (priority 1984, dated 1985).

Assay [1] addresses T1, CAD de peuplier (Populus deltoides, UniProt P31657).
T1 construct: CAD de peuplier isolée selon la méthode deSARNI et al,1984; from tissue; host or cells: poplar plant material
T1 sequence (P31657 1-357): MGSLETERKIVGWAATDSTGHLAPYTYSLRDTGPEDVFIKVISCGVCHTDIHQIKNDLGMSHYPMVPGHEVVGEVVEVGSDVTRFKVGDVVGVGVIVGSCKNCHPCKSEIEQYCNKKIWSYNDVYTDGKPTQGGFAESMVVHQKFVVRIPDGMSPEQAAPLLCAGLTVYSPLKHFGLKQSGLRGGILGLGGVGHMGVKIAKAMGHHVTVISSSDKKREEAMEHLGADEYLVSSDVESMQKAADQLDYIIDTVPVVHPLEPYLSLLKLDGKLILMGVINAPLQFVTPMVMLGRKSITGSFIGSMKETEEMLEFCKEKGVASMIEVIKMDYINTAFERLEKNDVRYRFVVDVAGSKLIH
Description: In vitro inhibition of isolated poplar cinnamyl alcohol dehydrogenase (CAD) at 2 mM. The format is biochemical. Particulars: for inhibition at 2000 µM / Inhibition à 2mM %: 2mM, CAD de peuplier; for inhibition at 2000 µM: read-out: Inhibition à 2mM %. The text has this:
Après réacidification à pH2 par de l'acide chlorhydrique 3N et centrifugation, le surnageant contenant les acides cinnamiques est séparé du résidu. Les "poudres alcool-benzène" ainsi hydrolysées sont lavées par de l'eau distillée jusqu'à pH neutre et séchées, sous vide dans un dessiccateur en présence de silica.-gel. Les teneurs en lignines sont estimées par la méthode gravimétriques de KLASON (Tappi Standard method Tl2m) modifiée par EFFLAND. Tappi, 60, p 143-144, 1977. On rapporte dans le tableau 1) suivant les résultats obtenus concernant l'effet mesuré in vitro d'inhibiteurs selon l'invention à une concentration de 2mM vis-à-vis de la CAD de peuplier isolée selon la méthode deSARNI et al,1984,EUROP JOURNAL OF BIOCHEMISTRY, 18(1),139, 259-265 On indique également dans ce tableau les résultats obtenus avec des composés portant des substitutions différentes de ceux mis enoe uvre dans l'invention. Les chiffres indiqués entre parenthèses a côté des formules correspondent aux composés identifiés dans les exemples de préparation 2 et 3.
On rapporte dans le tableau 2 suivant les pourcentages d'inhibition de la CAD obtenus en utilisant, à raison de 2 mM, différents composés capables de complexer Zn.

For assay [2], the target named is T2, CAD (Populus deltoides, UniProt P31657).
T2 sequence (P31657 1-357): T1 sequence (P31657 1-357)
Description: In vitro CAD activity with nitro derivatives, physiological direction (aldehyde reduction, NADPH oxidation at 340 nm). The format is biochemical. Particulars: read-out: % d'inhibition (activité CAD); for inhibition at 230 µM: Concentration finale dans le milieu 0,230 mM; for inhibition at 375 µM: Concentration finale dans le milieu 0,375 mM. The source says:
η) Effets des dérivés nitrés sur l'activité CAD "in vitro". Concentration finale % d'inhibition
Les mesures ont été réalisées dans le sens physiologique (aldéhyde alcool), c'est-à-dire en suivant la réduction de l'aldéhyde (oxydation du NADPH mesurée à 340 nm).(Les tests sont plus sensibles et plus proches du milieu "in vivo".

Assay [3] concerns cultures de tabac. Particulars: prior art; cited from earlier work.

“Also recorded” adds a separate entry of the source. Like-named read-outs stand apart in the source and are kept apart here.

In general, inhibition refers to the relative decrease from the control value, in per cent. Turning to `CC(C)(C)OC(=O)CS(=O)(=O)NC1CCCCC1` [compound 14, N-(Cyclohexyl)sulfamoyl acétate de tertiobutyle], in assay [1], the inhibition at 2000 µM was determined as 0%.

Consider `CC(C)(C)OC(=O)C[S+]([O-])Nc1ccc([N+](=O)[O-])cc1` (stereo not shown) [nitro PAS], for which, in assay [2] (Concentration finale dans le milieu 0,125 mM), the inhibition at 125 µM is 14%. Also, the inhibition at 188 µM in assay [2] (Concentration finale dans le milieu 0,188 mM) was 28%. In assay [2], the inhibition at 230 µM stood at 68% and the inhibition at 375 µM was 100%. On to `O=C(O)CS(=O)(=O)Nc1ccccc1` [NPS, N-(phényl) sulfamoyle], for which the inhibition at 2000 µM in assay [1] came out at 45%. With “(Hydroxy-4-methoxy-3-phényl)-3-Hydroxy-3-propanethiate de 5-phényle [HMHP, reference compound]”, the “Inhibition à 2mM %” value in assay [1] was 40%.

For “N-(Thiazolyl-2) Sulfanilamide [NTS, reference compound]”, the “Inhibition à 2mM %” value in assay [1] came to 55%.

In the case of `CC(C)(C)OC(=O)C(C)(C)[S+]([O-])Nc1ccccc1` (stereo not shown) [compound 15, N-(Phényl)sulfinamoyl isobutyrate de tertiobutyle], the inhibition at 2000 µM in assay [1] came to 0%. Also, the “inhibition de l'activité CAD (in words)” value in assay [1] (listed as NPSI) is “inefficaces; also recorded: n'inhibent pas”. Regarding `CC(C)(C)OC(=O)C[S+]([O-])Nc1ccccc1` (stereo not shown) [composé 1, N-(phényl)sulfinamoyl acétate de tertiobutyle], in assay [1], the inhibition at 2000 µM came to 50%.

As for `CC(C)(C)OC(=O)CC(=O)Nc1ccccc1` [PCAD, Phényl(carbamoyl) acétate de tertiobutyle, reference compound], in assay [1], the inhibition at 2000 µM was determined as 0%.

For the compound `CC(C)[S+]([O-])Nc1ccccc1` (stereo not shown) [NPSP, N-(phényl) sulfinamoyl d'isopropyle, reference compound], in assay [1], the “inhibition de l'activité CAD (in words)” value is given as “inefficaces; also recorded: n'inhibent pas” and the inhibition at 2000 µM was 0%. For `CC(C)(C)OC(=O)C[S+]([O-])Nc1ccc([N+](=O)[O-])cc1O` (stereo not shown) [nitro OH PAS], in assay [2], the inhibition at 230 µM came out at 5% and the inhibition at 375 µM is 41%. Further, the inhibition at 500 µM in assay [2] (Concentration finale dans le milieu 0,500 mM) amounted to 100%. `CC(C)(C)OC(=O)C[S+]([O-])NC1CCCCC1` (stereo not shown) [compound 17, N-(Cyclohexyl)sulfinamoyl acétate de tertiobutyle]: the inhibition at 2000 µM in assay [1] turned out to be 0%. As for `NOC(Cc1ccccc1)C(=O)O` (racemic) [acide D,L-α-aminoxy-β -phényl-propionique], the “réduction des phénols totaux” value in assay [3] was approximately 30%.

Turning to `CC(C)(C)OC(=O)CS(=O)(=O)Nc1ccccc1` [composé 7a, N-(phényl)sulfamoyl acétate de tertiobutyle], the inhibition at 2000 µM in assay [1] was 50%. For the compound “N-tert-butyl-methoxy-2 (Iminomethyl) - 4 phénol [BIP, reference compound]”, in assay [1], the “Inhibition à 2mM %” value was 50%. As for `O=C(O)CSCC(=O)c1ccccc1` [Acide oxo-5-phényl-5-thia-3, reference compound], the inhibition at 2000 µM in assay [1] worked out at 40%.
